Numbering of substitutions follows the chain as printed.
Tests used:
[1] = target: T1, recombinant N370S mutant GC (Homo sapiens, UniProt P04062, N409S); test: activity assay of recombinant N370S mutant GC (4-MU substrate); type: biochemical; details: cell-free, tenfold molar amount of peptide, relative to buffer control
T1 sequence (P04062 40-536 N409S): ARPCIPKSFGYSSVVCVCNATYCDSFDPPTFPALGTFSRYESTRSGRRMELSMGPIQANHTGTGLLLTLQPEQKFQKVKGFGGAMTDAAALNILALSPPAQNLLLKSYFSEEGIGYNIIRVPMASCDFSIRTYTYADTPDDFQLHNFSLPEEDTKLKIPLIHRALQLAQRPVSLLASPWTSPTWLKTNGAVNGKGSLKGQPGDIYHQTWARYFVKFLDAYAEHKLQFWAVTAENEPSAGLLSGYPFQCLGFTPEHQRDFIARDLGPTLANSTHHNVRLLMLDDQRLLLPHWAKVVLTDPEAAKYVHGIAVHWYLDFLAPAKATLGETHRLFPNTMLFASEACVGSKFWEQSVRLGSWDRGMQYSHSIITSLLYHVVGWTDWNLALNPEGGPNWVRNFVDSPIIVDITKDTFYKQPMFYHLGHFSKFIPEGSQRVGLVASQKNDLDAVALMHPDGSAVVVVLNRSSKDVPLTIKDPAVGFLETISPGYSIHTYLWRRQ
Excerpt: To determine the enzymatic activity of the recombinant enzymes, lyophilized enzymes were reconstituted in the NaPi buffer described above. The lyophilized samples of wild-type GC (Cerezyme®) and the custom-made recombinant N307S mutant enzyme contain 0.01% polysorbate 80 (Tween 80) (see prescription information for Cerezyme® at the website for Cerezyme®). As indicated in our experiments, the concentration of the detergent is sufficient to support active GC enzyme and to perform the in vitro GC activity assays without adding further detergents to the reaction mix. […]
Using the fluorescent substrate 4-MU (FIG. 3K), 10 μL of the recombinant enzyme/peptide mixture (0.1 nmol GC/N370S previously incubated with 1 nmol helix 5 TAT peptide in 50 mM NaPi buffer; total incubation volume 40 μL) were incubated directly with 60 μL of 0.2 M sodium citrate buffer and 10 μL of the substrate (5 mM dissolved in 0.2 M sodium citrate buffer) in a black-bottomed 96-well dish (Nunc no. 446473; Thermo Fisher Scientific). […] The fluorescence was assessed at an excitation wavelength of 365 nm and an emission wavelength of 445 nm in a SpectraMax i3 plate reader (Molecular Devices). […]

[2] = target: T2, recombinant GC (Homo sapiens, UniProt P04062, R534H); test: stabilization assay of recombinant GC at 37° C.; type: biochemical; details: recombinant GC incubated with peptide at 37° C.
T2 construct: purchased Genzyme Therapeutics, Boston, USA
T2 sequence (P04062 40-536 R534H): T1 sequence (P04062 40-536 N409S) with S370N, R495H
Method: Proteins were visualized by coomassie staining (CBB). […] See also FIG. 6.
To address the functional impact of the observed interaction between the helix 5 peptide and recombinant GC, we measured GC activity in the presence of a one- to tenfold molar excess of the helix 5 peptide. […] No effect on enzymatic activity after incubation with the helix 5 peptide or the LIMP-2 ectodomain could be found for recombinant α-mannosidase (LAMAN) further emphasizing the specificity of the helix 5 peptide on GC activity (FIG. 6E). […] To analyze if the increase in GC activity is due to stabilization of the enzyme, recombinant GC was incubated with the helix 5 and the control peptide at 37° C. and the activity of GC was measured at regular intervals (FIG. 3F).

| Substance | increase in the activity of the N370S mutant GC [1] | GC enzymatic activity remaining at 72 hours [2] |
| --- | --- | --- |
| Biotin-Ttds-KFERQLREIIEAMLKAYQQKLFVTHTVDEYGRKKRRQRRR [helix 5 TAT-peptide] | four-fold increase |  |
| Biotin-Ttds-LREIIEAMLKAYQQKLFVTHTVDE [helix 5 peptide] |  | still displayed significant enzymatic activity |

From US10286038B2, “Lysosome membrane protein 2 (LIMP-2) based peptides and related uses” (Northwestern University, priority 2016, dated 2019)
